Reference: the NIST ThermoML archive (doi:10.1021/je7003758)

Experiment: xn = mol fraction of the nth substance listed
Settings: 298.15 K, Liquid

ClCCCCCl [1,4-dichlorobutane] + CN1CCCC1=O
mass density [kg/m3]
Settings | x2 = 0.1039 | x2 = 0.2034 | x2 = 0.3036 | x2 = 0.402 | x2 = 0.5025 | x2 = 0.5968 | x2 = 0.7003 | x2 = 0.8008 | x2 = 0.8971
15000 kPa | – | – | – | – | – | – | 1071.5 | 1059.7 | 1048.3
15400 kPa | – | – | – | – | 1093.6 | – | – | – | –
15500 kPa | 1134.8 | 1125 | 1114.7 | 1104.4 | – | 1083.3 | 1071.7 | 1060 | 1048.6
15900 kPa | – | – | – | – | – | – | – | – | 1048.8
16000 kPa | 1135.2 | 1125.3 | 1115.1 | 1104.8 | 1094 | 1083.5 | 1072 | 1060.3 | –
16400 kPa | – | – | – | 1105 | – | – | – | – | –
16500 kPa | 1135.5 | 1125.6 | 1115.4 | – | 1094.2 | 1083.8 | 1072.2 | 1060.6 | 1049
16900 kPa | – | – | 1115.6 | – | – | – | – | – | –
17000 kPa | 1135.9 | 1126 | – | 1105.4 | 1094.5 | 1084.1 | 1072.5 | 1060.8 | 1049.3
17500 kPa | 1136.2 | 1126.3 | 1116 | 1105.7 | 1094.8 | 1084.4 | 1072.8 | 1061.1 | 1049.5
18000 kPa | 1136.5 | 1126.6 | 1116.3 | 1106 | 1095.1 | 1084.7 | 1073.1 | 1061.3 | 1049.8
18500 kPa | 1136.9 | 1126.9 | 1116.6 | 1106.2 | 1095.4 | 1085 | 1073.3 | 1061.6 | 1050.1
19000 kPa | 1137.3 | 1127.3 | 1117 | 1106.6 | 1095.8 | 1085.3 | 1073.7 | 1061.9 | 1050.3
19500 kPa | 1137.6 | 1127.6 | 1117.3 | 1106.9 | 1096 | 1085.6 | 1074 | 1062.2 | 1050.6
20000 kPa | 1138 | 1128 | 1117.7 | 1107.4 | 1096.5 | 1086 | 1074.5 | 1062.4 | 1050.9
